Laboratory results taken from paper PMC10615177 (ACS infectious diseases, 2023).
Several values for one entry are separate records, joined by “and”; a condition that tells them apart may be missing. Equal entries are not always repeated. Where two headings read alike, the source gives them in different places.

Columns and labels:
M. smegmatis = M. smegmatis cell growth inhibition; assay type: cell-based, Mycobacterium smegmatis; details: read-out: Ms IC50; M. smegmatis
M. tuberculosis HN878 = M. tuberculosis HN878 growth inhibition; assay type: cell-based, Mycobacterium tuberculosis; details: for IC50: read-out: Mtb HN878 IC50, dose-response curves; for Mtb HN878 MIC: visual inspection
M. tuberculosis Erdman = M. tuberculosis Erdman growth inhibition; assay type: cell-based, Mycobacterium tuberculosis
M. tuberculosis H37Rv = M. tuberculosis H37Rv growth inhibition; assay type: cell-based, Mycobacterium tuberculosis
[1] = system: M. abscessus smooth variant; assay: microbe, parasite or virus in culture; assay type: cell-based
[2] = system: M. abscessus rough variant; assay: microbe, parasite or virus in culture; assay type: cell-based
Bacillus subtilis = assay: B. subtilis growth inhibition; assay type: cell-based; details: read-out: Bs IC50
E. coli = E. coli growth inhibition; assay type: cell-based, Escherichia coli; details: for IC50: read-out: Ec IC50
[3] = system: T. brucei bloodstream forms; assay: T. brucei bloodstream form growth inhibition; assay type: cell-based, Trypanosoma brucei; details: read-out: T. brucei IC50; bloodstream forms
[4] = system: T. cruzi Dm28c epimastigotes; assay: T. cruzi epimastigote growth inhibition; assay type: cell-based, Trypanosoma cruzi; details: read-out: T. cruzi IC50 (EPI); epimastigotes
[5] = system: T. cruzi Dm28c intracellular amastigotes; assay: T. cruzi intracellular amastigote inhibition; assay type: cell-based, Trypanosoma cruzi; details: read-out: T. cruzi IC50 (PAR); intracellular amastigotes in U2OS host cells
[6] = system: L. donovani promastigotes; assay: L. donovani promastigote growth inhibition; assay type: cell-based, Leishmania donovani; details: read-out: L. donovani IC50; promastigotes
[7] = system: Plasmodium falciparum asexual blood stages; assay: P. falciparum asexual blood stage; assay type: cell-based; details: read-out: PfABS IC50 (μM ± S.E.); asexual blood stages
[8] = molecular target: M. tuberculosis MmpL3 (MtMmpL3) (Mycobacterium tuberculosis, UniProt P9WJV5); assay: Surface plasmon resonance binding to MmpL3; details: for koff: 1:1 Langmuir binding model
Chain of M. tuberculosis MmpL3 (MtMmpL3) (P9WJV5 whole entry): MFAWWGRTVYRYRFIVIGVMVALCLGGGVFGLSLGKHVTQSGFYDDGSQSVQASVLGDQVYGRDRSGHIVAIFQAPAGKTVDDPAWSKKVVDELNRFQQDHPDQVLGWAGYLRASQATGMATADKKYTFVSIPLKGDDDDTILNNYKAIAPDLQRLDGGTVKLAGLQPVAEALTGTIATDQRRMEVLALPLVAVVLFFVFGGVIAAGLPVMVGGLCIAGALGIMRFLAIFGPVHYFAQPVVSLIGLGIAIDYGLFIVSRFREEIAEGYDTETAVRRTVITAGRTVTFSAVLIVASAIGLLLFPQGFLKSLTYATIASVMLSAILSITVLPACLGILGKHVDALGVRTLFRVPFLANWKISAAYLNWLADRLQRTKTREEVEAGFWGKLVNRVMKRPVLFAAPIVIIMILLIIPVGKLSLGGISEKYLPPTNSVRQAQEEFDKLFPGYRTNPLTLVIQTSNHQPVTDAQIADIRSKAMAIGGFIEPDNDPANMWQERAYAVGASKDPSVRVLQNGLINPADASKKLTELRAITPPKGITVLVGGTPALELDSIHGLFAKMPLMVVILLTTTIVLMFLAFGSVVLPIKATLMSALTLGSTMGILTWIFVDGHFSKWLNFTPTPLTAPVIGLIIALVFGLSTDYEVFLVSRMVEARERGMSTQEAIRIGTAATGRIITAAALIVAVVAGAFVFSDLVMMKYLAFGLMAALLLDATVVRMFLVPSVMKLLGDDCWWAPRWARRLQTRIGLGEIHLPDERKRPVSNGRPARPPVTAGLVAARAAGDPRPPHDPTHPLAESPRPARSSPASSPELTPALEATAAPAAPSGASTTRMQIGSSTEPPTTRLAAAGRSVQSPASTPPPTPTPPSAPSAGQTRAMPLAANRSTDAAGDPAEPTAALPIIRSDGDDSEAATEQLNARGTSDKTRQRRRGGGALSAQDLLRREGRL

[9] = DSC of DMPC bilayers with inhibitor; assay type: physicochemical; details: for Tm (main transition) / ΔH / ΔT1/2: 10 wt % inhibitor, PBS pH 7.4, heating
[10] = DSC of DSPG bilayers with inhibitor; assay type: physicochemical; details: for Tm (main transition) / ΔH / ΔT1/2: 10 wt % inhibitor, PBS pH 7.4, heating; for Broadening of main transition peak ΔΤ1/2 compared to pure DSPG / Decrease of Tm compared to DSPG alone: heating
[11] = system: HepG2 (human hepatocellular carcinoma) cells; assay: HepG2 cell line viability
U2OS host cells = assay: U2OS host cell growth inhibition; details: read-out: T. cruzi CC50 (U20S)
[12] = system: L. mexicana promastigotes; assay: L. mexicana promastigote growth inhibition; assay type: cell-based, Leishmania mexicana; details: for IC50: read-out: L. mexicana IC50, promastigotes
[13] = Rat liver microsome stability; details: rat liver microsomes
[14] = Mice liver microsome stability; details: mice microsomes
[15] = Human liver microsome stability; details: human liver microsomes
[16] = read-out: KD, 1:1 model, 1:1 binding model, from ratio of rate constants
[17] = read-out: KD, 2-state, two-state model, from rate constants

| SMILES | IC50 (M. smegmatis) [µM] | IC50 (M. tuberculosis HN878) [nM] | Mtb HN878 MIC (M. tuberculosis HN878) [µM] | Mtb Erdman MIC (M. tuberculosis Erdman) [µM] | Mtb H37Rv MIC (M. tuberculosis H37Rv) [µM] | Ma(S) MIC [1] [µM] | Ma(R) MIC [2] [µM] | IC50 [3] [nM] | IC50 [4] [nM] | IC50 [5] [nM] | IC50 [6] [nM] | koff [8] [s⁻¹] | Kd [8, 16] [µM] | Kd [8, 17] [µM] | ka1 ([8]; two-state model) [M⁻¹ s⁻¹] | ka2 ([8]; two-state model) [s⁻¹] | kd1 ([8]; two-state model) [s⁻¹] | kd2 ([8]; two-state model) [s⁻¹] | Tm (main transition) [9] [°C] | ΔH [9] [kJ/mol] | further results |
| --- | --- | --- | --- | --- | --- | --- | --- | --- | --- | --- | --- | --- | --- | --- | --- | --- | --- | --- | --- | --- | --- |
| CCCCC1(NCCNCC=C(C)CCC=C(C)C)C2CC3CC(C2)CC1C3 (stereo not shown) [Compound 8e, N-(3,7-dimethylocta-2,6-dien-1-yl)-N´-(2-butyladamantan-2-yl)ethane-1,2-diamine] | 2.5 | 2500 ± 200 | 3 | 9.7 | 12.9 | 6.2 | 6.2 | 370 ± 20 | 2500 ± 1000 | 840 ± 500 | 4000 ± 400 | 0.3888 | 97 | 108 | 5151 | 0.009897 | 0.7008 | 0.03763 | 15.7 | 24.4 | Activity against M. abscessus higher than SQ109 [1]: 4–8 fold; MIC against M. abscessus [1]: 5.8 to 6.2 µM; IC50 (Bacillus subtilis): 540 nM; IC50 (E. coli): 7.8 µM; IC50 [7]: 0.27 ± 0.04 µM; ΔT1/2 [9]: 2.2 °C; Decrease of Tm compared to DMPC without inhibitor ([9]; heating): ~7.8 °C; Tm (main transition) [10]: 49.0 °C; ΔH [10]: 38.5 kJ/mol; ΔT1/2 [10]: 3.6 °C; Broadening of main transition peak ΔΤ1/2 compared to pure DSPG [10]: 2.7 °C; Decrease of Tm compared to DSPG alone [10]: ~ 5 °C; HepG2 % viability @ 2 μM ([11]; 2 μM): 83%; HepG2 % viability @ 20 μM [11]: 50%; CC50 (U2OS host cells): 1700 ± 1000 nM |
| CCCC1(NCCNCC=C(C)CCC=C(C)C)C2CC3CC(C2)CC1C3 (stereo not shown) [Compound 8d, N-(3,7-dimethylocta-2,6-dien-1-yl)-N´-(2-propyladamantan-2-yl)ethane-1,2-diamine] | 4.3 ± 0.8 | 2600 ± 1000 | 3 | 13 | 13 | 10 | 10 | 880 ± 200 | 2100 ± 900 | 600 ± 500 | 2000 ± 200 | 0.5403 | 91 | 106 | 7325 | 0.00968 | 0.9488 | 0.04246 | 17.5 | 22.6 | IC50 (E. coli): 7.6 µM; Less active than 8b/SQ109, L. mexicana [12]: ~ 4 fold; IC50 [12]: 1940 nM and 1900 nM; IC50 [7]: 0.53 ± 0.22 µM; ΔT1/2 [9]: 2.2 °C; Decrease of Tm compared to DMPC without inhibitor ([9]; heating): ~6 °C; Tm (main transition) [10]: 50.0 °C; ΔH [10]: 48.1 kJ/mol; ΔT1/2 [10]: 1.1 °C; Broadening of main transition peak ΔΤ1/2 compared to pure DSPG [10]: 0.2–1.6 °C; Decrease of Tm compared to DSPG alone [10]: 3–4 °C; HepG2 % viability @ 20 μM [11]: 100%; CC50 (U2OS host cells): 1600 ± 100 nM |
| CC(C)=CCCC(C)=CCNCCNC(C)(C)C12CC3CC(CC(C3)C1)C2 [Compound 12, N-(3,7-dimethylocta-2,6-dien-1-yl)-N´-(2-(adamantan-1-yl)propan-2-yl)ethane-1,2-diamine] | 15 ± 2 | 3400 ± 600 | 3 | 13 | 13 | 12.9 | 12.9 | 1400 ± 30 | 2400 ± 700 | 560 ± 900 | 2300 ± 100 | 0.6646 | 106 | 120 | 7245 | 0.007539 | 1.05 | 0.03558 | 19.8 | 17.8 | IC50 (E. coli): 8.9 µM; IC50 [12]: 4700 ± 200 nM; IC50 [7]: 0.77 ± 0.1 µM; ΔT1/2 [9]: 4.1 °C; Decrease of Tm compared to DMPC without inhibitor ([9]; heating): 3–4 °C; Tm (main transition) [10]: 49.8 °C; ΔH [10]: 55.8 kJ/mol; ΔT1/2 [10]: 2.4 °C; Broadening of main transition peak ΔΤ1/2 compared to pure DSPG [10]: 0.2–1.6 °C; Decrease of Tm compared to DSPG alone [10]: 3–4 °C; HepG2 % viability @ 20 μM [11]: 100%; CC50 (U2OS host cells): 1400 ± 200 nM |
| CC(C)=CCCC(C)=CCNCCNC1(Cc2ccccc2)C2CC3CC(C2)CC1C3 (stereo not shown) [Compound 8g, N-(3,7-dimethylocta-2,6-dien-1-yl)-N´-(2-benzyladamantan-2-yl)ethane-1,2-diamine] | 6 | 2000 ± 500 | 1.6 | 6.1 | 6.1 | 5.8 | 5.8 | 850 ± 90 | 6600 ± 1000 | 920 ± 60 | 6100 ± 60 | 0.3999 | 69 | 74 | 6462 | 0.006528 | 0.5715 | 0.03248 | 16.6 | 21.6 | Less activity than SQ109 against M. tuberculosis (M. tuberculosis HN878; MtbHN878, MtErdman and MtH37Rv): 2–4 fold; Activity against M. abscessus higher than SQ109 [1]: 4–8 fold; MIC against M. abscessus [1]: 5.8 to 6.2 µM; IC50 (Bacillus subtilis): 590 nM; IC50 (E. coli): 130 µM; ΔT1/2 [9]: 10 °C; Broadening of main transition peak ΔΤ1/2 compared to pure DMPC ([9]; heating): 9.6 °C; Decrease of Tm compared to DMPC without inhibitor ([9]; heating): ~6.9 °C; Tm (main transition) [10]: 48.0 °C; ΔH [10]: 55.5 kJ/mol; ΔT1/2 [10]: 1.7 °C; Broadening of main transition peak ΔΤ1/2 compared to pure DSPG [10]: 0.2–1.6 °C; Decrease of Tm compared to DSPG alone [10]: ~ 5 °C; HepG2 % viability @ 20 μM [11]: 100%; CC50 (U2OS host cells): 2000 ± 400 nM |
| CC(C)=CCCC(C)=CCNCCNC1(c2ccccc2)C2CC3CC(C2)CC1C3 (stereo not shown) [Compound 8h, N-(3,7-dimethylocta-2,6-dien-1-yl)-N´-(2-phenyl-adamantan-2-yl)ethane-1,2-diamine] | 5.8 | 2300 ± 200 | 1.6 | 13 | 13 | 12 | 6 | 1300 ± 300 | 7300 ± 2000 | 600 ± 40 | 1400 ± 1000 | 0.465 | 115 | 136 | 25900 | 0.00526 | 4.085 | 0.03247 | 14.7 | 29.8 | Ec IC50 (E. coli): No inhibition; IC50 [7]: 0.42 ± 0.09 µM; ΔT1/2 [9]: 2.7 °C; Decrease of Tm compared to DMPC without inhibitor ([9]; heating): ~8.8 °C; Tm (main transition) [10]: 48.6 °C; ΔH [10]: 55.4 kJ/mol; ΔT1/2 [10]: 5.3 °C; Broadening of main transition peak ΔΤ1/2 compared to pure DSPG [10]: 4.4 °C; Decrease of Tm compared to DSPG alone [10]: ~ 5 °C; HepG2 % viability @ 20 μM [11]: 100%; Intrinsic clearance rate (CLint) relative to SQ109 [13]: about twice as large; Metabolism relative to SQ109 [13]: more rapidly metabolized; % remanent at 60 minutes relative to SQ109 [14]: same % remanent as SQ109 (8a); Intrinsic clearance rate (CLint) relative to SQ109 [14]: essentially the same; Intrinsic clearance rate (CLint) relative to SQ109 [15]: about twice as large; Metabolism relative to SQ109 [15]: more rapidly metabolized; CC50 (U2OS host cells): 3500 ± 1000 nM |
